Data as given in patent US10822337B2, “TGF-β inhibitorC” (Rigel Pharmaceuticals, Inc., priority 2015, dated 2020).

How the values were obtained:
[1] = test system: GDF8 signaling (GDF pSMAD, MPC11); assay: AlphaScreen SureFire SMAD3 (p-Ser423/425) assay, inhibition of GDF8 signaling; format: cell-based; details: Mus musculus, MPC-11, p-SMAD-3 (Ser423/425) in cell lysate after GDF8 stimulation
[2] = test system: TGF-β signaling (TGF-β pSMAD, MPC-11); assay: AlphaScreen SureFire SMAD3 (p-Ser423/425) assay, inhibition of TGF-β signaling; format: cell-based; details: Mus musculus, p-SMAD-3 (Ser423/425) in cell lysate after TGF-β stimulation
Method in brief: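 Cells in collagen-coated plates were pretreated about 10 minutes with three-fold DMSO serial dilutions of compound, then stimulated with TGF-β. They were lysed with about 25 μL 1× Lysis Buffer. Lysates in 384-well plates were incubated protected from light with Acceptor bead mix for 2 hours and Donor bead mix for 1½ hours. p-SMAD-3 (Ser423/425) was read on Synergy-4 or Enspire using AlphaScreen pSMAD3 settings.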

SMILES | IC50 [1] | IC50 [2]
Fc1ccc(-c2nn3c(c2-c2ccc4nccnc4c2)OCC3)cc1 [Compound 70, 6-(4-Fluorophenyl)-7-(quinoxalin-6-yl)-2,3-dihydropyrazolo[5,1-b]oxazole] | 0.399 µM | 1.37 µM
COc1cnc2ccc(-c3c(-c4cc(F)ccc4F)nn4c3CCC4)cc2n1 [Compound 199, 7-(2-(2,5-difluorophenyl)-5,6-dihydro-4H-pyrrolo[1,2-b]pyrazol-3-yl)-2-methoxyquinoxaline] | 0.427 µM | 1.37 µM
Cc1cc(-c2nn3c(c2-c2ccc4[nH]ncc4c2)CCC3)c(F)cc1F [Compound 179, 5-(2-(2,4-Difluoro-5-methyphenyl)-5,6-dihydro-4H-pyrrolo[1,2-b]pyrazol-3-yl)-1H-indazole] | 0.172 µM | 0.714 µM
Fc1ccc(-c2nn3c(c2-c2ccc4cn[nH]c4c2)CCC3)cc1 [Compound 6, 6-(2-(4-Fluorophenyl)-5,6-dihydro-4H-pyrrolo[1,2-b]pyrazol-3-yl)-1H-indazole] | 0.2 µM | 1.04 µM
Fc1c(Cl)cccc1-c1nn2c(c1-c1ccc3[nH]ncc3c1)CCC2 [Compound 138, 5-(2-(3-Chloro-2-fluorophenyl)-5,6-dihydro-4H-pyrrolo[1,2-b]pyrazol-3-yl)-1H-indazole] | 0.731 µM | 1.47 µM
Fc1ccc(-c2nn3c(c2-c2ccc4nccnc4c2)CCC3)c(F)c1 [Compound 96, 6-(2-(2,4-Difluorophenyl)-5,6-dihydro-4H-pyrrolo[1,2-b]pyrazol-3-yl)quinoxaline] | 0.155 µM | 0.668 µM
Fc1ccc(-c2nn3c(c2-c2ccc4nccnc4c2)CCC3)cc1OC(F)(F)F [Compound 153, 6-(2-(4-Fluoro-3-trifluoromethoxyphenyl)-5,6-dihydro-4H-pyrrolo[1,2-b]pyrazol-3-yl)quinoxaline] | 0.551 µM | 1.78 µM
Cc1c(F)ccc(-c2nn3c(c2-c2ccc4ncsc4c2)CCC3)c1F [Compound 170, 6-(2-(2,4-Difluoro-3-methylphenyl)-5,6-dihydro-4H-pyrrolo[1,2-b]pyrazol-3-yl)benzo[d]thiazole] | 0.213 µM | 0.603 µM
Fc1ccc(-c2nn3c(c2-c2ccc4nccn4c2)CCC3)cc1 [Compound 19, 6-(2-(4-Fluorophenyl)-5,6-dihydro-4H-pyrrolo[1,2-b]pyrazol-3-yl)imidazo[1,2-a]pyridine] | 0.309 µM | 1.77 µM
Fc1cc(F)c(-c2nn3c(c2-c2ccc4cn[nH]c4c2)CCC3)cc1Cl [Compound 187, 6-(2-(5-Chloro-2,4-difluorophenyl)-5,6-dihydro-4H-pyrrolo[1,2-b]pyrazol-3-yl)-1H-indazole] | 0.135 µM | 0.656 µM

Now those with a lower IC50 [1], led by results:

IC50 [1] | IC50 [2] | SMILES
0.13 µM | 0.456 µM | FC(F)(F)c1cccc(-c2nn3c(c2-c2ccc4nccn4c2)OCC3)c1 [Compound 61, 7-(Imidazo[1,2-a]pyridin-6-yl)-6-(3-trifluoromethylphenyl)-2,3-dihydropyrazolo[5,1-b]oxazole]
0.0695 µM | 0.14 µM | Clc1cccc(-c2nn3c(c2-c2ccc4nccn4c2)CCC3)c1 [Compound 25, 6-(2-(3-Chlorophenyl)-5,6-dihydro-4H-pyrrolo[1,2-b]pyrazol-3-yl)imidazo[1,2-a]pyridine]
0.0602 µM | 0.204 µM | Cc1cccc(-c2nn3c(c2-c2ccc4nccnc4c2)CCC3)c1 [Compound 54, 6-(2-(m-Tolyl)-5,6-dihydro-4H-pyrrolo[1,2-b]pyrazol-3-yl)quinoxaline]
0.0365 µM | 0.193 µM | Cc1cccc(-c2nn3c(c2-c2ccc4cn[nH]c4c2)OCC3)c1 [Compound 37, 7-(1H-indazol-6-yl)-6-(m-tolyl)-2,3-dihydropyrazolo[5,1-b]oxazole]
0.0262 µM | 0.116 µM | Fc1ccc(-c2nn3c(c2-c2ccc4ncsc4c2)CCC3)c(F)c1 [Compound 97, 6-(2-(2,4-Difluorophenyl)-5,6-dihydro-4H-pyrrolo[1,2-b]pyrazol-3-yl)benzo[d]thiazole]
